From patent publication US9598423B2 (BRISTOL-MYERS SQUIBB COMPANY, priority 2013, dated 2017)
Where two headings read alike, the source gives them in different places.

Tests used:
[1] = molecular target: CK1ε (Homo sapiens (Human), UniProt P49674); test: CK1ε kinase assay (Caliper LABCHIP electrophoretic separation of fluoresceinated peptide substrate and product); type: biochemical; conditions: read-out: CK1ε (IC50)
In short: (§1)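 Kinase reactions ran 22 h at room temperature, were stopped with EDTA, and phosphorylated product was separated electrophoretically from unphosphorylated fluoresceinated peptide. Compounds were tested at eleven concentrations from 10 mM DMSO stocks. IC50 by non-linear regression.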

[2] = molecular target: CK1δ (Homo sapiens (Human), UniProt P48730); test: CK1δ kinase assay (Caliper LABCHIP electrophoretic separation of fluoresceinated peptide substrate and product); type: biochemical; conditions: 200 pM CK1δ, 50 μM ATP, 1.5 μM peptide substrate, 22 hours at room temperature; read-out: CK1δ (IC50)
CK1δ, sequence (P48730 whole entry): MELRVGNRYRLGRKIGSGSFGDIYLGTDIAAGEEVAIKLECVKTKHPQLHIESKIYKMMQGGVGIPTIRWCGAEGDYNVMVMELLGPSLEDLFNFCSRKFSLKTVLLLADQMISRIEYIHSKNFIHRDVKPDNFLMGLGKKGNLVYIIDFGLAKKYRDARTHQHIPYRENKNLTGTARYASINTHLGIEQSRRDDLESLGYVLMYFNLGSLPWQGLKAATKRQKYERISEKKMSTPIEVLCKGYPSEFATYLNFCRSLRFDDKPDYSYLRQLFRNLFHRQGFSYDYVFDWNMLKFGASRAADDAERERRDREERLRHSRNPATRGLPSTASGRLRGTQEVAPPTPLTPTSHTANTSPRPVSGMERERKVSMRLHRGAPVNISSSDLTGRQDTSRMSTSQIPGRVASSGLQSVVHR
In short: as §1

[3] = 200 pM CK1ε, 50 μM ATP, 1.5 μM peptide substrate, 22 hours at room temperature

CK1ε, sequence (P49674 whole entry): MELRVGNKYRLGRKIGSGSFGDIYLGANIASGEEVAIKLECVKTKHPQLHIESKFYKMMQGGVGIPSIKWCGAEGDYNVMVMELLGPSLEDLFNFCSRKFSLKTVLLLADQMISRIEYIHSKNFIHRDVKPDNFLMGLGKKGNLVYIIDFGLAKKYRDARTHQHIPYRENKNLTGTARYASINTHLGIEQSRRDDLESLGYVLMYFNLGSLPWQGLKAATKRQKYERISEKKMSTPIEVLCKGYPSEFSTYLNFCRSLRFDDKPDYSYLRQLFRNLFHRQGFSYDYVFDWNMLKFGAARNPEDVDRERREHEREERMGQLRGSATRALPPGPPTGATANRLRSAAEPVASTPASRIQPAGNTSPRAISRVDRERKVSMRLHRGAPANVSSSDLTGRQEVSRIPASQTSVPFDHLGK

| IC50 [1, 3] | IC50 [2] | SMILES | IC50 [1] |
| --- | --- | --- | --- |
| 0.01 to 10 nM | 0.01 to 10 nM | Cc1ccc(-c2nn3c(c2C(N)=O)CN(C(=O)Nc2ccc4c(c2)CS(=O)(=O)C4)CC3)cc1Cl [Compound 251, 2-(3-Chloro-4-methylphenyl)-N^5-(2,2-dioxido-1,3-dihydrobenzo[c]thiophen-5-yl)-6,7-dihydropyrazolo[1,5-a] pyrazine-3,5(4H)-dicarboxamide] | – |
| 0.01 to 10 nM | 0.01 to 10 nM | Cc1ccc(-c2nn3c(c2C(N)=O)CN(C(=O)Nc2ccc4ncsc4c2)CC3)cc1Cl [Compound 254, N^5-(Benzo[d]thiazol-6-yl)-2-(3-chloro-4-methylphenyl)-6,7-dihydropyrazolo[1,5-a] pyrazine-3,5(4H)-dicarboxamide] | – |
| 0.01 to 10 nM | 0.01 to 10 nM | Cc1ccc(-c2nn3c(c2C(N)=O)CN(C(=O)Nc2ccc(C#N)c(F)c2)CC3)cc1Cl [Compound 255, 2-(3-Chloro-4-methylphenyl)-N^5-(4-cyano-3-fluorophenyl)-6,7-dihydropyrazolo [1,5-a]pyrazine-3,5(4H)-dicarboxamide] | – |
| 0.01 to 10 nM | 0.01 to 10 nM | Cc1ccc(-c2nn3c(c2C(N)=O)CN(C(=O)Nc2ccc(C#N)c(Cl)c2)CC3)cc1Cl [Compound 256, N^5-(3-Chloro-4-cyanophenyl)-2-(3-chloro-4-methylphenyl)-6,7-dihydropyrazolo[1,5-a] pyrazine-3,5(4H)-dicarboxamide] | – |
| 0.01 to 10 nM | 0.01 to 10 nM | N#Cc1ccc(NC(=O)N2CCn3nc(-c4cc(Cl)c(F)c(Cl)c4)c(C(N)=O)c3C2)cc1 [Compound 259, N^5-(4-Cyanophenyl)-2-(3,5-dichloro-4-fluorophenyl)-6,7-dihydropyrazolo[1,5-a]pyrazine-3,5(4H)-dicarboxamide] | – |
| 0.01 to 10 nM | 0.01 to 10 nM | NC(=O)c1c(-c2cc(Cl)c(F)c(Cl)c2)nn2c1CN(C(=O)Nc1ccc(F)c(F)c1)CC2 [Compound 260, 2-(3,5-Dichloro-4-fluorophenyl)-N^5-(3,4-difluorophenyl)-6,7-dihydropyrazolo[1,5-a] pyrazine-3,5(4H)-dicarboxamide] | – |
| 0.01 to 10 nM | 0.01 to 10 nM | NC(=O)c1c(-c2cc(Cl)c(F)c(Cl)c2)nn2c1CN(C(=O)Nc1cc(Cl)cc(Cl)c1)CC2 [Compound 261, 2-(3,5-Dichloro-4-fluorophenyl)-N^5-(3,5-dichlorophenyl)-6,7-dihydropyrazolo[1,5-a] pyrazine-3,5(4H)-dicarboxamide] | – |
| 0.01 to 10 nM | 0.01 to 10 nM | NC(=O)c1c(-c2cc(Cl)c(F)c(Cl)c2)nn2c1CN(C(=O)Nc1ccc(C(F)(F)F)cc1)CC2 [Compound 262, 2-(3,5-Dichloro-4-fluorophenyl)-N^5-(4-(trifluoromethyl)phenyl)-6,7-dihydropyrazolo[1,5-a]pyrazine-3,5(4H)-dicarboxamide] | – |
| 0.01 to 10 nM | 0.01 to 10 nM | CN(C)c1cc(Cl)cc(-c2nn3c(c2C(N)=O)CN(C(=O)Nc2ccc(C#N)c(C(F)(F)F)c2)CC3)c1 [Compound 266, 2-(3-Chloro-5-(dimethylamino)phenyl)-N^5-(4-cyano-3-(trifluoromethyl)phenyl)-6,7-dihydropyrazolo[1,5-a]pyrazine-3,5(H)-dicarboxamide] | – |
| 0.01 to 10 nM | 0.01 to 10 nM | N#Cc1ccc(NC(=O)N2CCn3nc(-c4cncc(Cl)c4)c(C(N)=O)c3C2)cc1 [Compound 270, 2-(5-Chloropyridin-3-yl)-N^5-(4-cyanophenyl)-6,7-dihydropyrazolo[1,5-a]pyrazine-3,5(4H)-dicarboxamide] | – |
| 0.01 to 10 nM | 0.01 to 10 nM | N#Cc1ccc(NC(=O)N2CCn3nc(-c4cc(Cl)ccc4Cl)c(C(N)=O)c3C2)cc1 [Compound 272, N^5-(4-Cyanophenyl)-2-(2,5-dichlorophenyl)-6,7-dihydropyrazolo[1,5-a] pyrazine-3,5(4H)-dicarboxamide] | – |
| 0.01 to 10 nM | 0.01 to 10 nM | N#Cc1ccc(NC(=O)N2CCn3nc(-c4cc(Cl)cc(Cl)c4)c(C(N)=O)c3C2)cc1 [Compound 273, N^5-(4-Cyanophenyl)-2-(3,5-dichlorophenyl)-6,7-dihydropyrazolo[1,5-a] pyrazine-3,5(4H)-dicarboxamide] | – |
| 100 to 2000 nM | 100 to 2000 nM | CS(=O)(=O)Nc1cccc(-c2nn3c(c2C(N)=O)CN(C(=O)Nc2ccc(C#N)cc2)CC3)c1 [Compound 274, N^5-(4-Cyanophenyl)-2-(3-(methylsulfonamido)phenyl)-6,7-dihydropyrazolo[1,5-a] pyrazine-3,5(4H)-dicarboxamide] | – |
| 0.01 to 10 nM | 0.01 to 10 nM | Cc1cc(C)cc(-c2nn3c(c2C(N)=O)CN(C(=O)Nc2ccc(C#N)cc2)CC3)c1 [Compound 275, N^5-(4-Cyanophenyl)-2-(3,5-dimethylphenyl)-6,7-dihydropyrazolo[1,5-a] pyrazine-3,5(4H)-dicarboxamide] | – |
| 0.01 to 10 nM | 10 to 100 nM | N#Cc1ccc(NC(=O)N2CCn3nc(-c4ccc5c(c4)OCO5)c(C(N)=O)c3C2)cc1 [Compound 277, 2-(Benzo[d][1,3]dioxol-5-yl)-N^5-(4-cyanophenyl)-6,7-dihydropyrazolo[1,5-a] pyrazine-3,5(4H)-dicarboxamide] | – |
| 10 to 100 nM | 10 to 100 nM | COc1ccc(Cl)cc1-c1nn2c(c1C(N)=O)CN(C(=O)Nc1ccc(C#N)cc1)CC2 [Compound 278, 2-(5-Chloro-2-methoxyphenyl)-N^5-(4-cyanophenyl)-6,7-dihydropyrazolo[1,5-a] pyrazine-3,5(4H)-dicarboxamide] | – |
| 0.01 to 10 nM | 0.01 to 10 nM | CN(C)c1cccc(-c2nn3c(c2C(N)=O)CN(C(=O)Nc2ccc(C#N)cc2)CC3)c1 [Compound 279, N^5-(4-Cyanophenyl)-2-(3-(dimethylamino)phenyl)-6,7-dihydropyrazolo[1,5-a] pyrazine-3,5(4H)-dicarboxamide] | – |
| 0.01 to 10 nM | 0.01 to 10 nM | COc1cc(-c2nn3c(c2C(N)=O)CN(C(=O)Nc2ccc(C#N)cc2)CC3)ccc1F [Compound 280, N^5-(4-Cyanophenyl)-2-(4-fluoro-3-methoxyphenyl)-6,7-dihydropyrazolo[1,5-a] pyrazine-3,5(4H)-dicarboxamide] | – |
| 0.01 to 10 nM | 0.01 to 10 nM | CSc1cccc(-c2nn3c(c2C(N)=O)CN(C(=O)Nc2ccc(C#N)cc2)CC3)c1 [Compound 281, N^5-(4-Cyanophenyl)-2-(3-(methylthio)phenyl)-6,7-dihydropyrazolo[1,5-a] pyrazine-3,5(4H)-dicarboxamide] | – |
| 0.01 to 10 nM | 0.01 to 10 nM | Cc1ccc(-c2nn3c(c2C(N)=O)CN(C(=O)Nc2ccc(C#N)cc2)CC3)cc1C [Compound 282, N^5-(4-Cyanophenyl)-2-(3,4-dimethylphenyl)-6,7-dihydropyrazolo[1,5-a] pyrazine-3,5(4H)-dicarboxamide] | – |
| 100 to 2000 nM | 100 to 2000 nM | CN(C)C(=O)c1cccc(-c2nn3c(c2C(N)=O)CN(C(=O)Nc2ccc(C#N)cc2)CC3)c1 [Compound 283, N^5-(4-Cyanophenyl)-2-(3-(dimethylcarbamoyl)phenyl)-6,7-dihydropyrazolo[1,5-a] pyrazine-3,5(4H)-dicarboxamide] | – |
| 10 to 100 nM | 10 to 100 nM | N#Cc1ccc(NC(=O)N2CCn3nc(-c4cccc(OC(F)(F)F)c4)c(C(N)=O)c3C2)cc1 [Compound 284, N^5-(4-Cyanophenyl)-2-(3-(trifluoromethoxy)phenyl)-6,7-dihydropyrazolo[1,5-a] pyrazine-3,5(4H)-dicarboxamide] | – |
| 0.01 to 10 nM | 0.01 to 10 nM | COc1cc(F)cc(-c2nn3c(c2C(N)=O)CN(C(=O)Nc2ccc(C#N)cc2)CC3)c1 [Compound 285, N^5-(4-Cyanophenyl)-2-(3-fluoro-5-methoxyphenyl)-6,7-dihydropyrazolo[1,5-a] pyrazine-3,5(4H)-dicarboxamide] | – |
| 100 to 2000 nM | 100 to 2000 nM | CS(=O)(=O)c1cccc(-c2nn3c(c2C(N)=O)CN(C(=O)Nc2ccc(C#N)cc2)CC3)c1 [Compound 286, N^5-(4-Cyanophenyl)-2-(3-(methylsulfonyl)phenyl)-6,7-dihydropyrazolo[1,5-a] pyrazine-3,5(4H)-dicarboxamide] | – |
| 0.01 to 10 nM | 10 to 100 nM | N#Cc1ccc(NC(=O)N2CCn3nc(-c4cccc(Cl)c4Cl)c(C(N)=O)c3C2)cc1 [Compound 287, N^5-(4-Cyanophenyl)-2-(2,3-dichlorophenyl)-6,7-dihydropyrazolo[1,5-a] pyrazine-3,5(4H)-dicarboxamide] | – |
| 100 to 2000 nM | 100 to 2000 nM | CC(=O)Nc1cccc(-c2nn3c(c2C(N)=O)CN(C(=O)Nc2ccc(C#N)cc2)CC3)c1 [Compound 288, 2-(3-Acetamidophenyl)-N^5-(4-cyanophenyl)-6,7-dihydropyrazolo[1,5-a] pyrazine-3,5(4H)-dicarboxamide] | – |
| 0.01 to 10 nM | 0.01 to 10 nM | Cc1cccc(-c2nn3c(c2C(N)=O)CN(C(=O)Nc2ccc(C#N)cc2)CC3)c1 [Compound 289, N^5-(4-Cyanophenyl)-2-(m-tolyl)-6,7-dihydropyrazolo [1,5-a]pyrazine-3,5(4H)-dicarboxamide] | – |
| 100 to 2000 nM | 100 to 2000 nM | CS(=O)(=O)c1ccc(-c2nn3c(c2C(N)=O)CN(C(=O)Nc2ccc(C#N)cc2)CC3)cc1 [Compound 290, N^5-(4-Cyanophenyl)-2-(4-(methylsulfonyl)phenyl)-6,7-dihydropyrazolo[1,5-a] pyrazine-3,5(4H)-dicarboxamide] | – |
| 0.01 to 10 nM | 0.01 to 10 nM | N#Cc1ccc(NC(=O)N2CCn3nc(-c4ccc(F)c(F)c4)c(C(N)=O)c3C2)cc1 [Compound 291, N^5-(4-Cyanophenyl)-2-(3,4-difluorophenyl)-6,7-dihydropyrazolo[1,5-a] pyrazine-3,5(4H)-dicarboxamide] | – |

| SMILES | IC50 [1, 3] | IC50 [2] | IC50 [1] |
| --- | --- | --- | --- |
| Cc1ccc(-c2nn3c(c2C(N)=O)CN(C(=O)Nc2ccc(C#N)c(C(F)(F)F)c2)CC3)cc1Cl [Compound 253, 2-(3-Chloro-4-methylphenyl)-N^5-(4-cyano-3-(trifluoro-methyl)phenyl)-6,7-dihydropyrazolo [1,5-a]pyrazine-3,5(4H)-dicarboxamide] | – | 0.01 to 10 nM | 0.01 to 10 nM |
